This data set is described as follows: Effect of food study (Example 17). In kind it is in vivo, human. To be noted: healthy adult subjects, single 50 mg or 100 mg capsule doses, fasting or fed. The method, then: An open-label randomized, single dose, four-way crossover study was employed to evaluate the dose proportionality and the effect of food on the pharmacokinetic profile of celecoxib in healthy adult subjects. Safety was assessed based on adverse events, vital signs and clinical laboratory tests. Twenty four healthy adult subjects were randomized to receive the following single doses of celecoxib: (A) a 50 mg dose capsule under fasting conditions, (B) a 50 mg dose capsule immediately following a high fat breakfast, (C) a 100 mg dose capsule under fasting conditions, and (D) a 100 mg dose capsule immediately following a high fat breakfast. The subjects received the study medication on days 1, 8, 15 and 22 in one of four treatment sequences (ADBC; BACD; CBDA; and DCAB). The specific composition of the 100 mg dose capsule is disclosed in Example 1. The specific composition of the 50 mg dose capsule is disclosed in Table 17A below:
Blood samples were collected at −0.25 (predose), 0.5, 1, 1.5, 2, 3, 4, 6, 8, 12, 16, 24, 36 and 48 hours post dose. Analyses of the separated plasma were performed at PPD Pharmaco, Richmond, Va. Celecoxib plasma concentrations were determined using a validated high performance liquid chromatography (“HPLC”) procedure with a lower limit of detection of 10.0 ng/ml. […] All adverse events were mild in severity.

For `Cc1ccc(-c2cc(C(F)(F)F)nn2-c2ccc(S(N)(=O)=O)cc2)cc1` [celecoxib, 4-[5-(4-methylphenyl)-3-(trifluoromethyl)-1H-pyrazol-1-yl]benzenesulfonamide], the “changes in vital signs or physical examinations” value is “no clinically significant changes” and the “severity of adverse events” value is recorded as “mild”.
